Active and inactive are the calls of the source.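 How the source made its calls: active means compounds whose EC50, the dose giving half of full IDE activation, is 100 µM or lower; inactive means EC50 above 100 µM or not measured.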
Biological target: Insulin-degrading enzyme (Homo sapiens) (UniProt P14735)
Test: activators of wild-type recombinant IDE, late-stage follow-up, counter-screen for IDE activator project, biochemical, fluorescence polarization, run by assay provider (AID 624043)
Conditions: FAbetaB cleavage

Sequence of Insulin-degrading enzyme (Homo sapiens) (P14735 whole entry, looked up): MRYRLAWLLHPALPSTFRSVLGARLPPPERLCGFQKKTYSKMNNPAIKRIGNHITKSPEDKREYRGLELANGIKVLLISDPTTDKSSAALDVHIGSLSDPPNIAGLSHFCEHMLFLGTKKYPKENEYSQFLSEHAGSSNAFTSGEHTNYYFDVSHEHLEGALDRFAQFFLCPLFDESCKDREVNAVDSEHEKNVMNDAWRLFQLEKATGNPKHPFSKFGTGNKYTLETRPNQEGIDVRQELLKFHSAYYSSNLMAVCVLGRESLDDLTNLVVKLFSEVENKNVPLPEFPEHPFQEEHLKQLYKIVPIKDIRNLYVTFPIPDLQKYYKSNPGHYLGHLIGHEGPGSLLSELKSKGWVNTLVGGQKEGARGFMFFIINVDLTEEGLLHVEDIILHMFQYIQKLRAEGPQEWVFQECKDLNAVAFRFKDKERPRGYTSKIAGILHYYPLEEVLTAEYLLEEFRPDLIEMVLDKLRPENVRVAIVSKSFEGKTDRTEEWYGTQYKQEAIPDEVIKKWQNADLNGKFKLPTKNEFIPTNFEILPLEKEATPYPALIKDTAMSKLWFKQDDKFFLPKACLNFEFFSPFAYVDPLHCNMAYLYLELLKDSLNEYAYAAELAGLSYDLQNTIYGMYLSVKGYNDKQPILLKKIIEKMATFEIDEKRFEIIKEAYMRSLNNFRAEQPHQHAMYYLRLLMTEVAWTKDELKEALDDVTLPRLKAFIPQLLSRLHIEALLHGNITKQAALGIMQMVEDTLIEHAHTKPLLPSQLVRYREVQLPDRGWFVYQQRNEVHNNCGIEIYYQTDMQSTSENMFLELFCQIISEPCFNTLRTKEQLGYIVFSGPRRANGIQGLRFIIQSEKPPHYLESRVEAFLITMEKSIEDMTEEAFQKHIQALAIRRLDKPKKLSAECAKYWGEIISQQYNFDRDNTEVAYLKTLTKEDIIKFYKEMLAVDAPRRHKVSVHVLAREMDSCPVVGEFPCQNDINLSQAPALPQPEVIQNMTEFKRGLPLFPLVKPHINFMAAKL

EC50 | Structure (SMILES)
> 15 µM (inactive) | CC(C)CCn1nnnc1C(C(C)C)N1CCN(c2ccccc2)CC1 (stereo not drawn)
> 15 µM (inactive) | CCC(c1nnnn1CCC(C)C)N1CCN(c2ccccc2)CC1 (stereo not drawn)
> 15 µM (inactive) | CC(C)CCn1nnnc1CN1CCN(c2ccccc2F)CC1

Source: PubChem BioAssay AID624043 (The Scripps Research Institute Molecular Screening Center, 2012)
